Laboratory results taken from article PMC12064818, “A general assay platform to study protein pharmacology using ligand-dependent structural dynamics” (Nature Communications, 2025).

Columns and labels:
B. malayi iPGM-C-HiBiT [1] = biological target: T1, B. malayi iPGM-C-HiBiT (Brugia malayi, UniProt Q4VWF8); test: iPGM coupled-enzyme assay, B. malayi iPGM-C-HiBiT; type: biochemical; set-up: cDNA, containing Ala2-Glu515 and the 6xHis tag; His6 (C); made in house; host or cells: E. coli; settings: B. malayi iPGM-C-HiBiT Std 5 nM; ligand […] Std
Protocol: (§1) The enzyme activity of C. elegans or B. malayi iPGM-C-HiBiT was measured using the functional coupled-enzyme luminescence end-point output assay for iPGM as previously described[16],[41],[68]. Briefly, the indicated concentration of 4 μL of iPGM-C-HiBiT was dispensed into 1536-well white, high solid base, medium bind plates in a pH 8.0 iPGM assay buffer (30 mM Tris-HCl, 5 mM magnesium sulfate, 20 mM potassium chloride and 0.08% BSA) with the BioRaptr 2. Compounds and controls were added to each plate with a pintool as described in Supplementary Data 8. Enzymes were incubated with peptide for > 20 min at ambient temperature, protected from light. […] Enzyme was at 5 nM final concentration for the standard assay with an estimated KM 3-phosphoglycerate (3PG) substrate concentration of 400 μM. Plates were incubated at ambient temperature for 10 min, protected from light, then measured by a ViewLux plate reader. […] See Supplementary Table 6 for additional details.
(§2) Supplementary Table 6. Protocol for Co- factor independent phosphoglycerate mutase (iPGM) coupled-enzyme assay
(§3) Supplementary Table 6: Protocol for Co-factor independent phosphoglycerate m utase (iPGM) coupled- enzym e assay […]
(§4) No enzym e control (colum n 1) and enzym e solutions (5 nM Bm iPGM-C-HiBiT or Ce iPGM-1 Reagent 4 µLC-HiBiT dialyzed against Zn/Mn final assay concentration) in PGM enzym e buffer; white/solid bottom , m edium bind, high base plates (Greiner), dispensed with BioRaptr 2 […]
(§5) in 8-pt 1:6 titration series in duplicate); com pounds transferred to respective colum ns with […]
(§6) Test com pounds: m acrocyclic peptides at 5 m M stock concentration in 16-pt, 1:3 titration […]
(§7) transferred to respective colum ns with Pintool
(§8) 3 Incubation 20 m inIncubate enzym e + com pounds at am bient tem p for 20 m in, protected from light 4 Reagent 2 µLSubstrate solution; 0.4 m M final concentration 3PG in coupled-enzym e substrate buffer; dispensed with BioRaptr 2
(§9) 5 Incubation 5 m inAm bient tem perature, protected from light
(§10) 6 Reagent 4 µLKinase-Glo Plus reagent (Prom ega) prepared according to m anufacturer’s protocol;
(§11) 7 Incubation 10 m inRoom tem perature, protected from light
(§12) 8 Detector ViewLuxRead plate lum inescence (Exposure = 1 sec; Gain = Medium; Speed = Slow; Binning = 2X) […]
(§13) in 20% glycerol); Bm iPGM-C-HiBiT enzym e 10 µM stock solution in 20% glycerol.
(§14) Coupled-enzym e substrate solution: 30 m M Tris-HCl, pH 8.0; 5 m M MgSO4; 20 m M KCl; 9 m M ADP (3 m M final); 0.1 4 units/µl enolase (Millipore Sigm a, Cat# E6126); 0.15 units/µl pyruvate kinase (from rabbit m uscle, Millipore Sigm a, Cat #

B. malayi iPGM-C-HiBiT [2] = biological target: T1, B. malayi iPGM-C-HiBiT; settings: B. malayi iPGM-C-HiBiT SDR 0.5 nM; ligand […] SDR
C. elegans iPGM-C-HiBiT = C. elegans iPGM-C-HiBiT (Caenorhabditis elegans, UniProt G5EFZ1); test: iPGM coupled-enzyme assay, C. elegans iPGM-C-HiBiT; type: biochemical; set-up: cDNA, containing Phe2-Ile539 and the 6xHis tag; His6 (C); made in house; host or cells: E. coli; settings: C. elegans iPGM-C-HiBiT Std 5 nM; ligand […] Std
Protocol: as §1, §2, §3, §4, §5, §6, §7, §8, §9, §10, §11, §12, §13, §14

FLuc-C-HiBiT = biological target: T2, FLuc-C-HiBiT (Photinus pyralis, UniProt P08659); test: biochemical; settings: enzyme activity, 10 uM ATP; read-out: IC50 or SDR50 (mM) / FLuc E
T2 construct: firefly luciferase with C-terminal HiBiT tag, E. coli expressed
T2 sequence (P08659 whole entry, looked up): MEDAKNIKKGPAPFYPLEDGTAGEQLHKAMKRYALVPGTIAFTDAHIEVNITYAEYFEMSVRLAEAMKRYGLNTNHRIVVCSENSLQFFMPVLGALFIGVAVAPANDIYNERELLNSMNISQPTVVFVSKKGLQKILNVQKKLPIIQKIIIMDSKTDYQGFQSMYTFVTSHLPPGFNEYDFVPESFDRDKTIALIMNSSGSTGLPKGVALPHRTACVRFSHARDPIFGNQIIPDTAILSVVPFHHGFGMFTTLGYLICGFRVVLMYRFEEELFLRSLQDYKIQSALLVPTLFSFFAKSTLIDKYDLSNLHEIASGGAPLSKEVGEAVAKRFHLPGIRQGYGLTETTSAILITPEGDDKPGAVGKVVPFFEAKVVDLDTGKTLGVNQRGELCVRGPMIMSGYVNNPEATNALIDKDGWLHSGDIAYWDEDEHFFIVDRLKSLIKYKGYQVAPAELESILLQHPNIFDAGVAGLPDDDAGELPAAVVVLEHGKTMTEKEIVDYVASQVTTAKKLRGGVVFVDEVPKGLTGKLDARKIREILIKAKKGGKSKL

T1 sequence (Q4VWF8 2-515): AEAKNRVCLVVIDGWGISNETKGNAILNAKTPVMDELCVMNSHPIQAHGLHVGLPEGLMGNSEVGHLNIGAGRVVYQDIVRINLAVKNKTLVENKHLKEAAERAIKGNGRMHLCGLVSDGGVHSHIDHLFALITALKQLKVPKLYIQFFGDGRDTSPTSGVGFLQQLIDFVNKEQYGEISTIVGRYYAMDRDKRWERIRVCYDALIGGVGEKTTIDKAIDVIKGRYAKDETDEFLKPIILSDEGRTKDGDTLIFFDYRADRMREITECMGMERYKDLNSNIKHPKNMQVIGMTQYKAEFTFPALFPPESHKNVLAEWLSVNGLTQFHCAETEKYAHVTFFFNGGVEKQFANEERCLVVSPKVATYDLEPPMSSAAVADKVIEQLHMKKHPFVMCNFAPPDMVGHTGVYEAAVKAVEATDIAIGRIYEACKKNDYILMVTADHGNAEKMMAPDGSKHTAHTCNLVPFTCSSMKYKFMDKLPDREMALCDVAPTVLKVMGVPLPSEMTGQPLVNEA
C. elegans iPGM-C-HiBiT, sequence (G5EFZ1 2-539): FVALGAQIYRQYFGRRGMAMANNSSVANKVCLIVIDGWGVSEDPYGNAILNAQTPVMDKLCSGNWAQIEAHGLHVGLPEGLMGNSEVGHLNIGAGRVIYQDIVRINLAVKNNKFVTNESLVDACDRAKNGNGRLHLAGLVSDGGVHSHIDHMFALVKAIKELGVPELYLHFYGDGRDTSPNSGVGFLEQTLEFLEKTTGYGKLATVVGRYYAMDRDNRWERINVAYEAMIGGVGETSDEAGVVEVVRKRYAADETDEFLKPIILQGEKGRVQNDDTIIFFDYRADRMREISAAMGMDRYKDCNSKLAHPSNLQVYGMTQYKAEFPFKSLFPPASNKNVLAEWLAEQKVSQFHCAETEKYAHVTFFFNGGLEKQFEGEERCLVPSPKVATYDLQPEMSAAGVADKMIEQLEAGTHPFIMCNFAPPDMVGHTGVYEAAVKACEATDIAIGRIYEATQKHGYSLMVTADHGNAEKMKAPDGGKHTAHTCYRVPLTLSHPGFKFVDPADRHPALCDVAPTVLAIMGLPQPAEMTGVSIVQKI

| SMILES | Standard assay statistics Ave RLU (B. malayi iPGM-C-HiBiT [1]) [RLU] | Standard assay statistics S:B (B. malayi iPGM-C-HiBiT [1]) | Standard assay statistics S:N (B. malayi iPGM-C-HiBiT [1]) | Standard assay statistics Z’ (B. malayi iPGM-C-HiBiT [1]) | SDR assay statistics Ave RLU (B. malayi iPGM-C-HiBiT [2]) [RLU] | SDR assay statistics S:B (B. malayi iPGM-C-HiBiT [2]) | SDR assay statistics S:N (B. malayi iPGM-C-HiBiT [2]) | SDR assay statistics Z’ (B. malayi iPGM-C-HiBiT [2]) | Standard assay statistics Ave RLU (C. elegans iPGM-C-HiBiT) [RLU] | Standard assay statistics S:B (C. elegans iPGM-C-HiBiT) | Standard assay statistics S:N (C. elegans iPGM-C-HiBiT) | Standard assay statistics Z’ (C. elegans iPGM-C-HiBiT) | IC50 (FLuc-C-HiBiT) [mM] |
| --- | --- | --- | --- | --- | --- | --- | --- | --- | --- | --- | --- | --- | --- |
| CC(C)C[C@H](NC(=O)[C@H](Cc1ccc(O)cc1)NC(=O)[C@@H]1CSCC(=O)N[C@H](Cc2ccc(O)cc2)C(=O)N[C@@H](CC(=O)O)C(=O)N[C@@H](Cc2ccc(O)cc2)C(=O)N2CCC[C@H]2C(=O)NCC(=O)N[C@@H](CC(=O)O)C(=O)N[C@@H](Cc2ccc(O)cc2)C(=O)N1)C(=O)N[C@@H](Cc1ccc(O)cc1)C(=O)NCC(=O)N[C@H](C(=O)N[C@@H](CS)C(=O)NCC(N)=O)[C@@H](C)O [Ce-2] | 4115.8 | 1.7 | -6.9 | 0.521 | 552.2 | 1.8 | 14.4 | 0.702 | 3361.1 | 8.4 | -16.5 | 0.816 |  |
| CC(CNC(=O)C1CCN(C(=O)c2ncn3c2COC(c2ccccc2)C3)CC1)c1ccccc1 (stereo not shown) [compound 00449795] |  |  |  |  |  |  |  |  |  |  |  |  | 0.00248 |
